Values quoted from earlier work in patent US6846495B2, “Compositions having improved delivery of actives” (The Procter & Gamble Company, priority 1999, dated 2005).

Details: intranasal formulations

## COc1ccc2c(c1)[C@@]13CCCC[C@H]1[C@@H](C2)N(C)CC3 [Dextromethorphan, 3-methoxy-17-methylmorphinan]
  bioavailability: substantial increases in bioavailability
